Experimental data: patent US10905658B2, “Methods and compositions for detecting hematopoietic and lymphoid tissue cancer cells” (WAYNE STATE UNIVERSITY, priority 2016, dated 2021)

Assays:
B-NHL cell lines [1] = experiment: Treatment of B-NHL cell lines with alkoxyamines (cell killing); format: cell-based; details: for killing of a B-NHL cell line (cytotoxicity): comparison of alkoxyamines AA3 through AA7, FIG. 17
B-NHL cell lines [2] = experiment: as above; format: cell-based; details: for effect on cell growth / cell death: B-NHL cells; for cell death: even at 10 mM
Procedure: A 24 hr treatment with 1 mM AA3 killed greater than 40% cells in each culture and at 10 mM concentration, >70% cells were killed (FIG. 11). […] Therefore, AA3 cytocidal to B-NHL cells while MX and ARP are only cytostatic.

AP sites in DNA = experiment: AP site labeling reaction on synthetic oligomer (gel shift, click reaction); format: biochemical; details: for product formation: pH 7
Procedure: A 6-carboxyfluorescein-(6-FAM-) labeled oligonucleotide U-17-mer (5-6-FAM-ATTATTAUCCATTTATT-3′, […]) was used for the AP site labeling reaction. The oligomer (4 pmol) was incubated with E. coli uracil DNA glycosylase (UDG, 1 unit, New England Labs) at 37° C. for 30 min in reaction buffer containing 20 mM Tris-HCl (pH 8.0), 1 mM DTT and 1 mM EDTA to create AP site containing DNA. The alkoxyamine [methoxyamine, MX (Sigma-Aldrich); aldehyde reactive probe, ARP (Dojindo Laboratories) or AA3] was added into the oligomer solution at indicated concentrations, and incubated at 37° C. for another 30 min. In some experiments, the pH of the solution was adjusted with HCl or NaOH solution following removal of uracil and the pH was confirmed using pH paper. Following the reaction of alkoxyamine, unlabeled AP sites were reduced by the addition of NaBH4 (Sigma-Aldrich) to 100 mM and further incubation for 5 min. If this step was omitted, we observed significant degradation of the DNA. The reactions were stopped by the addition of formamide, loading dye and heating to 95° C. for5 min. The DNAs were electrophoresed in 20% polyacrylamide gels containing 7 M urea and scanned using a Typhoon 9210 phosphorimager (GE Healthcare). Product bands in images were quantified using ImageQuant software. In experiments involving competition between alkoxyamines, AP site containing DNA was reacted with the first alkoxyamine at 37° C. for 30 min. This was followed by the addition of the second alkoxyamine and incubation for an additional 30 min. The reactions were stopped and the products were analyzed as described above.
Biotin azide or Cy5 azide (Lumiprobe) was added to a solution of AA3-linked 17-mer to 0.5 mM followed by the addition of a freshly prepared solution of CuBr/TBTA (1:3 in DMSO/t-BuOH 3:1, 0.5 mM, Sigma-Aldrich). The mixture was shaken at 45° C. for 1 h. The DNAs were electrophoresed and analyzed as described above.

APE-1 = experiment: AP endonuclease activity assay; format: biochemical, mammalian; details: for protection of AP sites against cleavage by APE-1: alkoxyamine reaction at pH 5
Procedure: The cleavage activity of AP endonuclease APE-1 (1 unit, New England Biolabs) was assayed using a 6-FAM labeled oligomer (4 pmol) containing a single uracil. The uracil was excised using UDG to create an AP site and the AP site was labeled with an alkoxyamine as described above. The APE-1 reaction was per-formed in the reaction buffer (50 mM potassium acetate, 20 mM Tris-acetate, 10 mM magnesium acetate, 1 mM DTT, pH 7.9) at 37° C. for 1 h. DNA products were stabilized by incubation with NaBH4 and analyzed by gel electrophoresis as described above.

HeLa cells = experiment: Killing of HeLa cells by MMS combined with MX or AA3 (trypan blue exclusion); format: cell-based, human
Procedure: Methyl methanesulfonate (MMS, Sigma-Aldrich) was diluted in phosphate buffered saline. MX or AA3 was dissolved in sterile water, and the pH was adjusted to 7 using NaOH solution. The solutions of all the chemicals were freshly prepared for each cytotoxicity experiment. HeLa cells were seeded in 48-well tissue culture plates at 3×10^4 to 6×10^4 cell/mL and grown overnight in DMEM with 10% fetal bovine serum (HyClone). Cells were treated with MMS or as a combination of MMS with MX or AA3 at indicated concentrations and harvested after 24 h. The viability of the cells was assessed via trypan blue (HyClone) exclusion assay performed using TC20 Automated Cell Counter (Bio-Rad Laboratories).

C#CCCON [AA5, O-(but-3-yn-1-yl)hydroxylamine]
effectiveness in killing relative to AA3 (B-NHL cell lines [1]; a B-NHL cell line): somewhat less effective
killing of a B-NHL cell line (cytotoxicity) (B-NHL cell lines [1]): killed these cells

NOCCC(=O)NNC(=O)CCCC[C@@H]1SC[C@@H]2NC(=O)N[C@@H]21 [ARP, N′-(3-(aminooxy)propanoyl)-5-((3aS,4S,6aR)-2-oxohexahydro-H-thieno[3,4-d]imidazol-4-yl)pentanehydrazide]
cytocidal or cytostatic to B-NHL cells (B-NHL cell lines [2]): cytostatic
effect on cell growth (B-NHL cell lines [2]): temporary pause in cell growth
cell death (B-NHL cell lines [2]): did not result in cell death
substrate converted to product (AP sites in DNA; 0.2 μM oligomer, 5 mM ARP, pH 7 or 8): < 20%
product formation (AP sites in DNA; 5 mM): 13%
product formation (AP sites in DNA; 10 mM): 20%
DNA cleaved by APE-1 (APE-1; AP sites reacted with alkoxyamine at pH 7): about 90%
protection of AP sites against cleavage by APE-1 (APE-1): 74%

C=CCON [AA7, O-allylhydroxylamine]
killing of a B-NHL cell line (cytotoxicity) (B-NHL cell lines [1]): cytotoxic

COS(C)(=O)=O [MMS, Methyl methanesulfonate]
loss of viability (HeLa cells; MMS alone, 50 µM, after one day): very little loss of viability

CON [MX, methoxyamine]
cytocidal or cytostatic to B-NHL cells (B-NHL cell lines [2]): cytostatic
effect on cell growth (B-NHL cell lines [2]): temporary pause in cell growth
cell death (B-NHL cell lines [2]): did not result in cell death
protection of AP sites against cleavage by APE-1 (APE-1): ~100%
protection of AP sites against APE-1 (APE-1; alkoxyamine reaction at pH 7): protected an overwhelming majority of AP sites
enhancement of killing by MMS (HeLa cells; 10 mM with MMS, six independent cultures): did enhance killing by MMS

CCCON [AA4, O-(n-propyl)hydroxylamine]
killing of a B-NHL cell line (B-NHL cell lines [1]; even at 10 mM, FIG. 17): did not significantly kill the cells
